Laboratory results reported in article PMC7407272, “Induction of Lysosome Membrane Permeabilization as a Therapeutic Strategy to Target Pancreatic Cancer Stem Cells” (Cancers, 2020).
Where two headings read alike, the source gives them in different places.

What was measured:
[1] = biological target: PIM1 (Homo sapiens, UniProt P11309); test: PIM kinase activity assay; assay type: biochemical
Description: (§1) PIM1/3 kinase activities were measured as previously described in Martínez-Gonzalez et al.. HASPIN activity was measured using the commercial ADP GLO assay (Promega), a homogeneous assay measuring ADP accumulation, as a universal product of kinase activity. The assay was done following general manufacturer recommendations and adapting protein to optimal conditions.

[2] = biological target: PIM3 (Homo sapiens, UniProt Q86V86); test: PIM kinase activity assay; assay type: biochemical
Description: as §1

[3] = biological target: T1, HASPIN (Homo sapiens, UniProt Q8TF76); test: HASPIN ADP GLO kinase assay; assay type: biochemical; design: purchased ProQinase, Freiburg, Germany; conditions: 150 μM ATP
T1 sequence (Q8TF76 1-798): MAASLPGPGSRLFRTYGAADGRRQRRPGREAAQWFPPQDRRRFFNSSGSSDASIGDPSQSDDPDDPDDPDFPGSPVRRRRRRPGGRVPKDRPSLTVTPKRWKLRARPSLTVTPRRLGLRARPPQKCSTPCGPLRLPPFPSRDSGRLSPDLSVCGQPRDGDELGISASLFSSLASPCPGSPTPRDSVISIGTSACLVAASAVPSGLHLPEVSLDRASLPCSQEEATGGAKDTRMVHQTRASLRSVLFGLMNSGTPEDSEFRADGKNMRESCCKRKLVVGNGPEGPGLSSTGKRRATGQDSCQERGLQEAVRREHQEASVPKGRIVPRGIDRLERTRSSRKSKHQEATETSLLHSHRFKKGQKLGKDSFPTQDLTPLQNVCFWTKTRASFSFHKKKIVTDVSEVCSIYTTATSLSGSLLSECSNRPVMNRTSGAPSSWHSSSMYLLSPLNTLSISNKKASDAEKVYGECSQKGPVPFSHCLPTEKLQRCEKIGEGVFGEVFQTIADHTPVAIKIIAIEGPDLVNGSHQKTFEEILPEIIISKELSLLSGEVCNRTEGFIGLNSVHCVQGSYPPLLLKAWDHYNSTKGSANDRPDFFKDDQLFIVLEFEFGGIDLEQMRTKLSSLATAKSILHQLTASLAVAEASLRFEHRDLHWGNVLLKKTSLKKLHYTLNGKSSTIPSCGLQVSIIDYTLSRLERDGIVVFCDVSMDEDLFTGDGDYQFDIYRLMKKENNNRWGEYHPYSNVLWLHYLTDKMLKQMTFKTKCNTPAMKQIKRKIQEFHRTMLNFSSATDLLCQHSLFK
Description: as §1

[4] = test system: PDAC2 3D spheres; test: Viability curves on PDAC2 3D spheres; assay type: cell-based, human; conditions: for EC50: Homo sapiens
Text: The PDAC patient-derived xenograft (PDX) Panc354 (referred to hereafter as PDAC3) was obtained from Dr. Manuel Hidalgo under a Material Transfer Agreement with the Spanish National Cancer Centre (CNIO), Madrid, Spain (Reference no. I409181220BSMH). PDAC1, PDAC2 and PDAC4 PDXs were established from primary patient resected tumors. Samples were provided by the BioBank Hospital Ramón y Cajal-IRYCIS (PT13/0010/0002), integrated in the Spanish National Biobanks Network and they were processed following standard operating procedures with the appropriate approval of the Ethical and Scientific Committees (Control no. No. Control: DE-BIOB-73 AC65, RG.BIOB-96 REV, and CI-BIOB-08-10-01 rev), with informed consent and according to Declaration of Helsinki principles. Primary patient tumors were subcutaneously implanted in immunocompromised female 6- to 8-week-old NU-Foxn1nu nude mice (Envigo, Barcelona, Spain) and subsequently passage in vivo to establish PDX PDAC1, PDAC2 and PDAC4. Primary PDX-derived in vitro cultures were established as previously detailed. Briefly, xenografts were minced, enzymatically digested with collagenase (Stem Cell Technologies) for 60 min at 37 °C and after centrifugation for 5 min at 1800 rpm, the cell pellets were resuspended and cultured in RPMI (1:1; #61870-010; Gibco, Waltham, MA, USA) supplemented with 10% FBS (Invitrogen, Waltham, MA, USA), Pen/Strep (1:100; #1500-063; Gibco, Waltham, MA, USA), and Fungizone (1:250; #15290-018; Gibco, Waltham, MA, USA). Primary cultures were tested for Mycoplasma at least every 4 weeks.
(§2) Pancreatic CSC spheres were generated as previously described in ultra-low attachment plates (Corning) using CSC media: serum-free DMEM/F12 medium (1:1; #21331-020; Gibco, Waltham, MA, USA), supplemented with Pen/Strep (1:100; #1500-063; Gibco, Waltham, MA, USA), Fungizone (1:250; #15290-018; Gibco), L-Glutamine (1:100; #25030-024; Gibco, Waltham, MA, USA), B-27 (1:50; #17504-044; Gibco, Waltham, MA, USA) and basic fibroblast growth factor (FGF-b) (1:5000; Gibco, Waltham, MA, USA). All cell culture was carried out at 37 °C in a 5% CO2 humidified incubator. To quantify spheres of > 40 μm, 1 mL of sample volume was analyzed with a CASY® Cell Counter (Roche Applied Sciences, Mannheim, Germany). The CASY® Cell Counter measuring principle is based on a capillary particle counter with pulse area analysis, that permits the determination of cell count, cell concentration, cell volume (peak), and average cell diameter, specifically diameters of 40–80 μm, 80–120 μm and >120 μm.
Murine embryonic stem cells (mESCs) were plated at 20,000 cells per well in gelatinized 96 well plates. Compounds from the 640 compound ETP library were added by a Beckman FX 96 tip to achieve a final concentration of 5 µM in each well, and each compound was tested in duplicate. Cells were treated for a total of 30 h prior to assessing cell viability using CellTiter 96® AQueous One Solution Cell Proliferation Assay (MTS) assay according to manufacturer’s instructions (G3582, Promega, Madison, WI, USA). Dose response curves were carried out on mESCs under the same conditions using indicated compounds. To test the viability of CSCs, 10,000 PDAC cells were plated in spheroid conditions and immediately treated with indicated compounds and concentrations for the duration of the sphere formation assay. […]

[5] = test system: PDAC1 cultures; test: Sphere formation assay; assay type: cell-based, human; conditions: 1.25 or 2.5 µM
Text: as §2

[6] = test system: PDAC3 cultures; test: Sphere formation assay; assay type: cell-based, human; conditions: 1.25 or 2.5 µM
Text: as §2

PIM1, sequence (P11309 whole entry): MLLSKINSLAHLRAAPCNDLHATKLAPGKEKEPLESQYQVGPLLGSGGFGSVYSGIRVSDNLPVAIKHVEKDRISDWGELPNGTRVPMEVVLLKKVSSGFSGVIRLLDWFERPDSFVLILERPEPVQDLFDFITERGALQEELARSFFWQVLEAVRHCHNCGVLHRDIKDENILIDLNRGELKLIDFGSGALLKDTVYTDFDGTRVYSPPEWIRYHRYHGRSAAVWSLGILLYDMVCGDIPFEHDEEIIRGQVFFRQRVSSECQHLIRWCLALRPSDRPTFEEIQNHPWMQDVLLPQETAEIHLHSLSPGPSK

IC50 [1]	IC50 [2]	IC50 [3]	Compound	prevention of the effect on PDAC2 CSC survival by Bafilomycin-A ([4]; 100 nM Bafilomycin 5 h pretreatment)	EC50 ([4]; PDAC-2, 72 h, no Bafilomycin, read-out: EC50 (viability), PDAC2 spheres)	EC50 ([4]; PDAC-2, pretreated with 100 nM Bafilomycin for 5 h, then 72 h, read-out: EC50 (viability), PDAC2 spheres, +Baf)	sphere forming capacity [5]	sphere forming capacity [6]	IC50 ([1]; kinase orthogonal assay)	IC50 ([2]; kinase orthogonal assay)	IC50 ([3]; kinase orthogonal assay)	EC50 ([4]; PDAC-2, 30 h, read-out: EC50 (viability), PDAC2 spheres)
> 10 µM	> 10 µM	> 10 µM	COc1nc2ccc(NCC3CCN(C)CC3)nn2c1C(=O)Nc1cccc(OC(F)(F)F)c1 [Cpd 1]	–	–	–	–	–	–	–	–	–
–	–	–	CN1CCC(CNc2ccc3ncc(C(=O)Nc4cccc(OC(F)(F)F)c4)n3n2)CC1 [Cpd 2]	≈ 3 fold	3.84 µM	9.14 µM	decreased sphere forming capacity	decreased sphere forming capacity	0.098 µM	0.129 µM	0.915 µM	–
–	–	–	Fc1ccc(-n2cc(CCCCN3CCC4(CC3)OCc3ccccc34)c3ccccc32)cc1 [siramesine]	–	–	–	decreased sphere forming capacity	decreased sphere forming capacity	–	–	–	5.98 µM
